Results on 14 compounds are retold here after US4772586A, “Novel derivatives of arginine vasopressin antagonists” (Medical College of Ohio, priority 1986, dated 1988).

*1 amine or outer side, *2 acyl side, *3 side chain or, on linkers, in order; H or OH if unused. Where a SMILES comes first, the peptide text is derived from it. Bridges are numbered along the chain shown (N, C = ends). [ ]: non-standard residue; d: D form. The star is where a group is joined. Ethylenediamine = C(CN[*:2])N[*:1]; X1 = O=C(CC1(S[*:2])CCCCC1)[*:1]; Orn = NCCC[C@H](N)C(=O)O; NHCH2CH2OH = OCCN*

Experiment [1] concerns antidiuretic response to arginine vasopressin. Description: Antagonism of the antidiuretic response to arginine vasopressin (Anti-ADH). In kind it is in vivo, rats. Particulars: for Anti-ADH Potency pA2: estimated in vivo pA2; for Anti-ADH pA2: Table 1, estimated in vivo pA2 = negative log of effective dose divided by volume of distribution (67 ml/kg). The procedure:
Activity as antidiuretic agonists was determined by intravenous injection of the compounds being evaluated in ethanol-anesthesized water-loaded rats in accordance with Sawyer, Endocrinology, vol. 63 (1958) at 694. Antagonism of the antidiuretic response to subsequent injections of arginine vasopressin was tested by the method of Sawyer et al., Science, vol. 212 (1981) at 49.
(§1) Antagonistic potencies were determined and expressed as "effective doses" and pA2 values. The "effective dose" is defined as the dose (in nanomoles per kilogram) that reduces the response seen from 2x units of agonist injected 20 min after the dose of antagonist to the response with 1x units of agonist. Estimated in vivo "pA2 " values represent the negative logarithms of the effective doses, divided by the estimated volume of distribution (67 ml/kg).

Experiment [2] relates to vasopressor response to arginine vasopressin. Description: Antagonism to the vasopressor response (Anti-VP). In kind it is in vivo. Particulars: for Anti-VP Potency pA2 / Anti-VP pA2: estimated in vivo pA2; for Anti-VP pA2: Table 1. As for the experimental part:
Antagonism to the vasopressor response was estimated in accordance with Dyckes et al., J. Med. Chem., vol. 17 (1974) at 969. The values are expressed as pA2 values, defined as in Schild et al., Br. J. Pharmacol., vol. 2 (1947) at 189.
as §1

Consider `CC[C@H](C)[C@@H]1NC(=O)[C@H](Cc2ccccc2)NC(=O)[C@@H](Cc2ccccc2)NC(=O)CC2(CCCCC2)SSC[C@@H](C(=O)N2CCC[C@H]2C(=O)N[C@@H](CCCNC(=N)N)C(=O)NCCN)NC(=O)[C@H](CC(N)=O)NC1=O` [[1-(beta-mercapto-beta,beta-cyclopentamethylenepropionic acid), 2-D-phenylalanine, 4-isoleucine, 8-arginine-N-(beta-amino)ethylamide, 9-desglycinamide] vasopressin] ([dF]FINCPR-Ethylenediamine; linker N-5 via X1), for which, in experiment [1] (Table 4), the “Anti-ADH Potency pA2” value is recorded as 8.11 ± 0.06. Moreover, the “Anti-VP Potency pA2” value in experiment [2] (Table 4, ^+ = mixed) is recorded as 7.89 ± 0.04.

Regarding `COc1ccc(C[C@@H]2NC(=O)CC3(CCCCC3)SSC[C@@H](C(=O)N3CCC[C@H]3C(=O)N[C@@H](CCCNC(=N)N)C(=O)N[C@@H](C)C(N)=O)NC(=O)[C@H](CC(N)=O)NC(=O)[C@H](CCC(N)=O)NC(=O)[C@H](Cc3ccccc3)NC2=O)cc1` [Example 9(b), [1-(beta-mercapto-beta,beta-cyclopentamethylenepropionic acid), 2-(O-methyl)tyrosine, 9-alaninamide]-argine vasopressin] (Y(Me)FQNCPRA-NH2; linker N-5 via X1), the “Anti-ADH: pA2” value in experiment [1] (text after Table 2) is listed as “about 6.0”. Besides, the “Anti-VP: pA2” value in experiment [2] (text after Table 2) is 8.74±0.08.

As for `CC[C@H](C)[C@@H]1NC(=O)[C@H](Cc2ccccc2)NC(=O)[C@@H](Cc2ccccc2)NC(=O)CC2(CCCCC2)SSC[C@@H](C(=O)N2CCC[C@H]2C(=O)N[C@@H](CCCNC(=N)N)C(=O)N[C@@H](CCCN)C(N)=O)NC(=O)[C@H](CC(N)=O)NC1=O` [Orn(NH2), [1-(beta-mercapto-beta,beta-cyclopentamethylenepropionic acid), 2-D-phenylalanine, 4-isoleucine, 9-ornithinamide]-arginine vasopressin] ([dF]FINCPR[Orn]-NH2; linker N-5 via X1), the “Anti-ADH Potency pA2” value in experiment [1] (Table 2) is reported as 8.18 ± 0.09. Also, in experiment [2] (Table 2), the “Anti-VP Potency pA2” value is on record as 7.80 ± 0.05.

On to `CCOc1ccc(C[C@H]2NC(=O)CC3(CCCCC3)SSC[C@@H](C(=O)N3CCC[C@H]3C(=O)N[C@@H](CCCNC(=N)N)C(=O)NCCN)NC(=O)[C@H](CC(N)=O)NC(=O)[C@H]([C@@H](C)CC)NC(=O)[C@H](Cc3ccccc3)NC2=O)cc1` [[1-(beta-mercapto-beta,beta-cyclopentamethylenepropionic acid), 2-D-(O-ethyl)tyrosine, 4-isoleucine, 8-arginine-N-(beta-amino)ethylamide, 9-desglycinamide] vasopressin] ([dY](Et)FINCPR-Ethylenediamine; linker N-5 via X1), for which the “Anti-ADH Potency pA2” value in experiment [1] (Table 4) is reported as 8.00 ± 0.12. The “Anti-VP Potency pA2” value in experiment [2] (Table 4, ^+ = mixed) is given as 8.33 ± 0.06.

`CC(C)[C@@H]1NC(=O)[C@H](Cc2ccccc2)NC(=O)[C@@H](Cc2ccccc2)NC(=O)CC2(CCCCC2)SSC[C@@H](C(=O)N2CCC[C@H]2C(=O)N[C@@H](CCCNC(=N)N)C(N)=O)NC(=O)[C@H](CC(N)=O)NC1=O` [desGly^9 d(CH2)5 [D-Phe^2]VAVP, [1-(beta-mercapto-beta,beta-cyclopentamethylenepropionic acid), 2-D-phenylalanine, 4-valine, 9-desglycine]-arginine vasopressin] ([dF]FVNCPR-NH2; linker N-5 via X1): the “Anti-ADH pA2” value in experiment [1] is on record as 8.09 ± 0.08. Also, in experiment [2], the “Anti-VP pA2” value is given as 8.15 ± 0.03.

For the compound `CCNC(=O)CNC(=O)[C@H](CCCNC(=N)N)NC(=O)[C@@H]1CCCN1C(=O)[C@@H]1CSSC2(CCCCC2)CC(=O)N[C@H]([C@H](C)CC)C(=O)N[C@@H](Cc2ccccc2)C(=O)N[C@@H]([C@@H](C)CC)C(=O)N[C@@H](CC(N)=O)C(=O)N1` [[1-(beta-mercapto-beta,beta-cyclopentamethylenepropionic acid), 2-D-isoleucine, 4-isoleucine, 9-glycine-N-ethylamide]-arginine vasopressin] ([dI]FINCPRG-NHEt; linker N-5 via X1), in experiment [1] (Table 4), the “Anti-ADH Potency pA2” value is reported as 7.86 ± 0.05. For the same compound, the “Anti-VP Potency pA2” value in experiment [2] (Table 4, ^+ = mixed) is 6.54 ± 0.11.

Take `CCOc1ccc(C[C@H]2NC(=O)CC3(CCCCC3)SSC[C@@H](C(=O)N3CCC[C@H]3C(=O)N[C@@H](CCCNC(=N)N)C(=O)NCCO)NC(=O)[C@H](CC(N)=O)NC(=O)[C@H]([C@@H](C)CC)NC(=O)[C@H](Cc3ccccc3)NC2=O)cc1` [[1-(beta-mercapto-beta,beta-cyclopentamethylenepropionic acid), 2-D-(O-ethyl)tyrosine, 4-isoleucine, 8-arginine-N-(beta-hydroxy)ethylamide, 9-desglycinamide] vasopressin] ([dY](Et)FINCPR-NHCH2CH2OH; linker N-5 via X1): the “Anti-ADH Potency pA2” value in experiment [1] (Table 4) is reported as 7.82 ± 0.06. For the same compound, the “Anti-VP Potency pA2” value in experiment [2] (Table 4, ^+ = mixed) was 7.89 ± 0.09.

In the case of `CCOc1ccc(C[C@H]2NC(=O)CC3(CCCCC3)SSC[C@@H](C(=O)N3CCC[C@H]3C(=O)N[C@@H](CCCNC(=N)N)C(=O)O)NC(=O)[C@H](CC(N)=O)NC(=O)[C@H](C(C)C)NC(=O)[C@H](Cc3ccccc3)NC2=O)cc1` [desGly(NH2)^9 d(CH2)5 [D-Tyr(Et)^2]VAVP, [1-(beta-mercapto-beta,beta-cyclopentamethylenepropionic acid), 2-D-(O-ethyl)tyrosine, 4-valine, 9-desglycinamide]-arginine vasopressin] ([dY](Et)FVNCPR-OH; linker N-5 via X1), in experiment [1], the “Anti-ADH pA2” value is reported as 7.78 ± 0.03. The “Anti-VP pA2” value in experiment [2] is reported as 7.77 ± 0.02.

For `CCOc1ccc(C[C@H]2NC(=O)CC3(CCCCC3)SSC[C@@H](C(=O)N3CCC[C@H]3C(=O)N[C@@H](CCCNC(=N)N)C(=O)NCC(N)=O)NC(=O)[C@H](CC(N)=O)NC(=O)[C@H](C(C)C)NC(=O)[C@H](Cc3ccccc3)NC2=O)cc1` [d(CH2)5 [D-Tyr(Et)^2]VAVP, [1-(beta-mercapto-beta,beta-cyclopentamethylenepropionic acid), 2-D-(O-ethyl)tyrosine, 4-valine]-arginine vasopressin, reference compound] ([dY](Et)FVNCPRG-NH2; linker N-5 via X1), the “Anti-ADH pA2” value in experiment [1] is 7.81 ± 0.07. Besides, the “Anti-VP pA2” value in experiment [2] is 8.22 ± 0.12.

In the case of `CC[C@H](C)[C@@H]1NC(=O)[C@H](Cc2ccccc2)NC(=O)[C@@H](Cc2ccc(O)cc2)NC(=O)CC2(CCCCC2)SSC[C@@H](C(=O)N2CCC[C@H]2C(=O)N[C@@H](CCCNC(=N)N)C(=O)NCCN)NC(=O)[C@H](CC(N)=O)NC1=O` [[1-beta-mercapto-beta,beta-cyclopentamethylenepropionic acid, 2-D-tyrosine, 4-isoleucine, 8-arginine-N-(beta-amino)ethylamide, 9-desglycinamide] vasopressin] ([dY]FINCPR-Ethylenediamine; linker N-5 via X1), in experiment [1] (Table 4), the “Anti-ADH Potency pA2” value is 7.81 ± 0.06. In addition, the “Anti-VP Potency pA2” value in experiment [2] (Table 4, ^+ = mixed) was 7.93 ± 0.08.

In the case of `CC[C@H](C)[C@@H]1NC(=O)[C@H](Cc2ccccc2)NC(=O)[C@@H](Cc2ccccc2)NC(=O)CC2(CCCCC2)SSC[C@@H](C(=O)N2CCC[C@H]2C(=O)N[C@@H](CCCNC(=N)N)C(=O)N[C@@H](Cc2ccc(O)cc2)C(N)=O)NC(=O)[C@H](CC(N)=O)NC1=O` [Tyr(NH2), [1-(beta-mercapto-beta,beta-cyclopentamethylenepropionic acid), 2-D-phenylalanine, 4-isoleucine, 9-tyrosinamide]-arginine vasopressin] ([dF]FINCPRY-NH2; linker N-5 via X1), in experiment [1] (Table 2), the “Anti-ADH Potency pA2” value is 7.85 ± 0.06. The “Anti-VP Potency pA2” value in experiment [2] (Table 2) was 7.27 ± 0.05.

As for `CCOc1ccc(C[C@@H]2NC(=O)CC3(CCCCC3)SSC[C@@H](C(=O)N3CCC[C@H]3C(=O)N[C@@H](CCCNC(=N)N)C(N)=O)NC(=O)[C@H](CC(N)=O)NC(=O)[C@H](C(C)C)NC(=O)[C@H](Cc3ccccc3)NC2=O)cc1` [desGly^9 d(CH2)5 [Tyr(Et)^2]VAVP, [1-(beta-mercapto-beta,beta-cyclopentamethylenepropionic acid), 2-(O-ethyl)tyrosine, 4-valine, 9-desglycine]-arginine vasopressin] (Y(Et)FVNCPR-NH2; linker N-5 via X1), the “Anti-ADH pA2” value in experiment [1] was 7.89 ± 0.09. For the same compound, in experiment [2], the “Anti-VP pA2” value is on record as 8.18 ± 0.02.

Turning to `CC[C@H](C)[C@@H]1NC(=O)[C@H](Cc2ccccc2)NC(=O)[C@@H](Cc2ccccc2)NC(=O)CC2(CCCCC2)SSC[C@@H](C(=O)N2CCC[C@H]2C(=O)N[C@@H](CCCNC(=N)N)C(=O)O)NC(=O)[C@H](CC(N)=O)NC1=O` [[1-(beta-mercapto-beta,beta-cyclopentamethylenepropionic acid), 2-D-phenylalanine, 4-isoleucine, 9-desglycinamide]-arginine vasopressin] ([dF]FINCPR-OH; linker N-5 via X1), the “Anti-ADH pA2” value in experiment [1] was 7.20 ± 0.10. Besides, the “Anti-ADH Potency pA2” value in experiment [1] (Table 4) is reported as 8.05 ± 0.09. The “Anti-VP pA2” value in experiment [2] is listed as 6.74 ± 0.08. The “Anti-VP Potency pA2” value in experiment [2] (Table 4, ^+ = mixed) was 7.84 ± 0.03.

For the compound `CCOc1ccc(C[C@H]2NC(=O)CC3(CCCCC3)SSC[C@@H](C(=O)N3CCC[C@H]3C(=O)N[C@@H](CCCNC(=N)N)C(=O)NCC(=O)NC)NC(=O)[C@H](CC(N)=O)NC(=O)[C@H](C(C)C)NC(=O)[C@H](Cc3ccccc3)NC2=O)cc1` [[1-(beta-mercapto-beta,beta-cyclopentamethylenepropionic acid), 2-D-(O-ethyl)tyrosine, 4-valine, 9-glycine-N-methylamide]-arginine vasopressin] ([dY](Et)FVNCPRG-NHMe; linker N-5 via X1), the “Anti-ADH Potency pA2” value in experiment [1] (Table 4) was 7.58 ± 0.06. Moreover, the “Anti-VP Potency pA2” value in experiment [2] (Table 4, ^+ = mixed) was 7.71 ± 0.04.
